Assay [1] addresses PI3Kδ (p110δ/p85α) Recombinant Human Protein (Homo sapiens (Human), UniProt O00329). The experiment in a line: PI3Kδ Scintillation Proximity Assay. In kind it is biochemical. An outline of the steps: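 Recombinant human p110δ/p85α (3.4 nM) phosphorylates 20 μM di-octanoyl PIP2 using 2 μM ATP spiked with [γ-33P]ATP, 120 min, room temperature, pH 6.7, 2% DMSO. Product measured by scintillation proximity; IC50 from dose-response fit.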
(In general: In a scintillation proximity assay essentially only radioactivity close to the scintillant gives light.)

Assay [2] addresses PI3Kγ (p110γ) Recombinant Human Protein (Homo sapiens (Human), UniProt P48736). Nature of the assay: PI3K-γ Scintillation Proximity Assay. It is filed as biochemical. The note with it: read-out: PI3Kγ IC50. An outline of the steps:
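Recombinant human p110γ assayed at room temperature in 20 mM MOPS pH 6.7, 10 mM MgCl2, 5 mM DTT, 0.03% CHAPS, 2% DMSO, with 20 μM PIP2 and 2 μM ATP plus [γ-33P]ATP. Product captured on WGA SPA beads overnight and counted; IC50 fitted from % of solvent-control activity versus log inhibitor concentration.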

Structures can show the parent of a compound that is named as a salt. Bounds are passed on as bounds.

This note sets out measurements from patent US10479795B2 (Incyte Corporation, priority 2016, dated 2019).

For orientation: IC50 means the midpoint of a concentration-inhibition curve.

Chain of PI3Kγ (p110γ) Recombinant Human Protein (P48736 whole entry): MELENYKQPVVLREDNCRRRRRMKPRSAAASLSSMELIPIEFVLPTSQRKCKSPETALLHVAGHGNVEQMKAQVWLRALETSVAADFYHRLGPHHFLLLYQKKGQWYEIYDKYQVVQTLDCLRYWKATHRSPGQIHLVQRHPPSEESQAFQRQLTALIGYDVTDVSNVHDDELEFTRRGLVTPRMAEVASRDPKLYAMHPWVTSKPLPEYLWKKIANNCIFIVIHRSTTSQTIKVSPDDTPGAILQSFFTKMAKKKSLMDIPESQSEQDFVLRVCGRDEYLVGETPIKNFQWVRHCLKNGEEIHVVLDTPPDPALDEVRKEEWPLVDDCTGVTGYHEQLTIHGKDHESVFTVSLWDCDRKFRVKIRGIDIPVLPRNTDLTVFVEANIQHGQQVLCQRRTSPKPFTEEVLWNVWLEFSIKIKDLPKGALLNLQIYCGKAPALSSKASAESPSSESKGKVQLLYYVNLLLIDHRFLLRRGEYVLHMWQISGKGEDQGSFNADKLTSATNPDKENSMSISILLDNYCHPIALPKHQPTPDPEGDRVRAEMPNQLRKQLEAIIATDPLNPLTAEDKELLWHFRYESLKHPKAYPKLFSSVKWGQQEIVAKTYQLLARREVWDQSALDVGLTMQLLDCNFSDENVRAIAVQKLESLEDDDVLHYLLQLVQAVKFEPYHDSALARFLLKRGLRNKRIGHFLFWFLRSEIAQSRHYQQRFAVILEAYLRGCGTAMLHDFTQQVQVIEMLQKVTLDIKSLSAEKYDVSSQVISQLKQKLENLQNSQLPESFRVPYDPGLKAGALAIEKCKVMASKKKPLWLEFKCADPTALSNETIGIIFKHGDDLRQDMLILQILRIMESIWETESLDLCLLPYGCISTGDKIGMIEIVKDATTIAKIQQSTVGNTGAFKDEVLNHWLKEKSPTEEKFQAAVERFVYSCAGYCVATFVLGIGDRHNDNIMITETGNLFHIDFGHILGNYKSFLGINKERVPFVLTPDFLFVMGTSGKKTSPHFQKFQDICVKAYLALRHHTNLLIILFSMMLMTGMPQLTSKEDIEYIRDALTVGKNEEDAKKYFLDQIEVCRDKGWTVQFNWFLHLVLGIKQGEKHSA
Chain of PI3Kδ (p110δ/p85α) Recombinant Human Protein (O00329 whole entry): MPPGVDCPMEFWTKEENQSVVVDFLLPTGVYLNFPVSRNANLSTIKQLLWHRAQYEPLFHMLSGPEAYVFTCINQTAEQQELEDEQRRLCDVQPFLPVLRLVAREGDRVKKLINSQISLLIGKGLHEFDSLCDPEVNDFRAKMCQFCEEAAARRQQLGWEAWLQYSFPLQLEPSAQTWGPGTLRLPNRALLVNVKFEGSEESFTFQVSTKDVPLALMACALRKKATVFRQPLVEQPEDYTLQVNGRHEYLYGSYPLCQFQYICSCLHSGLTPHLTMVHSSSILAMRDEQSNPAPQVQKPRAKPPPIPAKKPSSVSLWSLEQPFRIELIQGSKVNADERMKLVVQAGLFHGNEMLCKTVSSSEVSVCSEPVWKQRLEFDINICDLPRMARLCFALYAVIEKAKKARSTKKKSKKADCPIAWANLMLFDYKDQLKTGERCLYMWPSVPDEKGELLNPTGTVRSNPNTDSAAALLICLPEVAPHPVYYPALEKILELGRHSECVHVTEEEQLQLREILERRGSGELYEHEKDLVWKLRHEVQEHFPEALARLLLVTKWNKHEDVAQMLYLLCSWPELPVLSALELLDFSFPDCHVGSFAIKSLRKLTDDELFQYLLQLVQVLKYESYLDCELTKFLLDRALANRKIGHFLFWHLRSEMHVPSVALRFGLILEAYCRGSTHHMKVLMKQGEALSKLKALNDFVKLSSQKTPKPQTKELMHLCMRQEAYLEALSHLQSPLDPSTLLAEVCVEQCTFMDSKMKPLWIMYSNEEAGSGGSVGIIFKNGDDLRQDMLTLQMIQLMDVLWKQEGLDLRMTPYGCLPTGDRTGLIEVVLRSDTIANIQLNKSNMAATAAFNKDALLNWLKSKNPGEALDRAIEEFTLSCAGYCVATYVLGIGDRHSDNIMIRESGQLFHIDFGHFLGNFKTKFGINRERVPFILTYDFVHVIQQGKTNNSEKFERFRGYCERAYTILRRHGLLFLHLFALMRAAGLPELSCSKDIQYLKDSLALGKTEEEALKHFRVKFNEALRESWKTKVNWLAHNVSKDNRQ
Chain of PI3Kδ (p110δ/p85α) Recombinant Human Protein (P27986 whole entry partner): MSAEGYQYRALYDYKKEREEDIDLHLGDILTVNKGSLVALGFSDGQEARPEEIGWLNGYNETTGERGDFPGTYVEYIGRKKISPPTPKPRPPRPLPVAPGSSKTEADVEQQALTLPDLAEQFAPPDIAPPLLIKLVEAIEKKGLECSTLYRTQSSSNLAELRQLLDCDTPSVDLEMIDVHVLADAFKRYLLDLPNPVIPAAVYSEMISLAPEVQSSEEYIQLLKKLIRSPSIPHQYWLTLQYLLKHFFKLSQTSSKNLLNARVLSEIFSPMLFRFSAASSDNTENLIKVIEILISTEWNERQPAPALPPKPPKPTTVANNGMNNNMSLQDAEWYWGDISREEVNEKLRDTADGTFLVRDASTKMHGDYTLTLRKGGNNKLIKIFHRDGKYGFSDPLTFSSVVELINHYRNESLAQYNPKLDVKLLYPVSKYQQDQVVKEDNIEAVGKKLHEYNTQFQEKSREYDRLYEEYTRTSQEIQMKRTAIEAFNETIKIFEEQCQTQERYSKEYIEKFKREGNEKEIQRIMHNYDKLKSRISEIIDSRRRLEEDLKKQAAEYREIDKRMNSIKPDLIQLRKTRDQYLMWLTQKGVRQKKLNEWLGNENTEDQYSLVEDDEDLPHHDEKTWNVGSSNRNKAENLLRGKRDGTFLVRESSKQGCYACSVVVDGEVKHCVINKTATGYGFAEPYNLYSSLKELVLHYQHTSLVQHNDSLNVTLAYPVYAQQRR

Turning to `Cc1ccc(S(=O)(=O)N(C)CC(F)(F)F)cc1-c1cnc2c(N)ncnn12` [Example 163, 3-(4-aminoimidazo[2,1-f][1,2,4]triazin-7-yl)-N,4-dimethyl-N-(2,2,2-trifluoroethyl)benzenesulfonamide], the results for the IC50 in assay [1] and in assay [2] were 500 to 2000 nM and less than 100 nM, respectively.
In the same order, the values of `Cc1ccc(S(=O)(=O)N(C)C2CC(O)C2)cc1-c1cnc2c(N)ncnn12` [Example 159, 3-(4-aminoimidazo[2,1-f][1,2,4]triazin-7-yl)-N-((1R,3R)-3-hydroxycyclobutyl)-N,4-dimethylbenzenesulfonamide] are more than 2000 nM and 100 to 500 nM.
Take `Cc1ccc(S(C)(=O)=O)cc1-c1cnc2c(N)nc(C(=O)NCCc3cnn(C)c3)cn12` [Example 453, 8-amino-N-(2-(1-methyl-1H-pyrazol-4-yl)ethyl)-3-(2-methyl-5-(methylsulfonyl)phenyl)imidazo[1,2-a]pyrazine-6-carboxamide trifluoroacetate salt]: the IC50 in assay [1] and in assay [2] was 100 to 500 nM each time.
Take `Cc1ccc(S(=O)(=O)[C@@H]2CCC[C@H](O)C2)cc1-c1cnc2c(N)ncnn12` (relative stereo) [Example 501, cis-3-((3-(4-Aminoimidazo[2,1-f][1,2,4]triazin-7-yl)-4-methylphenyl)sulfonyl)cyclohexan-1-ol]: the IC50 in assay [1] is 500 to 2000 nM; in assay [2], less than 100 nM.
As to `Cc1ccc(S(=O)(=O)N2CCCC(CNC(=O)CN(C)C)C2)cc1-c1cnc2c(N)nc(C(F)(F)F)cn12` (stereo not shown) [Example 514, N-((1-((3-(8-Amino-6-(trifluoromethyl)imidazo[1,2-a]pyrazin-3-yl)-4-methylphenyl)sulfonyl)piperidin-3-yl)methyl)-2-(dimethylamino)acetamide], the IC50 in assay [1] lay within 500 to 2000 nM; in assay [2], 100 to 500 nM.
In the same order, the values of `CC(C)(O)CNS(=O)(=O)c1ccc(C(F)(F)F)c(-c2cnc3c(N)nc(C(F)(F)F)cn23)c1` [Example 407, 3-(8-amino-6-(trifluoromethyl)imidazo[1,2-a]pyrazin-3-yl)-N-(2-hydroxy-2-methylpropyl)-4-(trifluoromethyl)benzenesulfonamide] are more than 2000 nM and 500 to 2000 nM.
In the same order, the values of `Cc1ccc(S(=O)(=O)C[C@H]2CC[C@@H](O)CC2)cc1-c1cnc2c(N)ncnn12` [Example 498, cis-4-(((3-(4-Aminoimidazo[2,1-f][1,2,4]triazin-7-yl)-4-methylphenyl)sulfonyl)methyl)cyclohexan-1-ol] are 500 to 2000 nM and less than 100 nM.
In the same order, the values of `Cc1ccc(S(=O)(=O)N2CCC3(CCCO3)C2)cc1-c1cnc2c(N)ncnn12` (stereo not shown) [Example 202, 7-(5-((1-Oxa-7-azaspiro[4.4]nonan-7-yl)sulfonyl)-2-methylphenyl)imidazo[2,1-f][1,2,4]triazin-4-amine] are 500 to 2000 nM and 100 to 500 nM.
Regarding `Cc1ccc(S(=O)(=O)N2CCCC(NC(=O)C3CC3)C2)cc1-c1cnc2c(N)nc(C(F)(F)F)cn12` (stereo not shown) [Example 517, N-(1-((3-(8-Amino-6-(trifluoromethyl)imidazo[1,2-a]pyrazin-3-yl)-4-methylphenyl)sulfonyl)piperidin-3-yl)cyclopropanecarboxamide trifluoroacetate], the IC50 in assay [1] is 500 to 2000 nM; in assay [2], less than 100 nM.
For `Cc1ccc(S(=O)(=O)CC2CC2)cc1-c1cnc2c(N)ncnn12` [Example 499, 7-(5-((Cyclopropylmethyl)sulfonyl)-2-methylphenyl)imidazo[2,1-f][1,2,4]triazin-4-amine], the values for the concentration for half-maximal inhibition (IC50) in assay [1] and in assay [2] were 500 to 2000 nM and 100 to 500 nM, respectively.
In the same order, the values of `CCN(CC)CCCCNC(=O)c1cn2c(-c3cc(S(C)(=O)=O)ccc3C)cnc2c(N)n1` [Example 452, 8-Amino-N-(4-(diethylamino)butyl)-3-(2-methyl-5-(methylsulfonyl)phenyl)imidazo[1,2-a]pyrazine-6-carboxamide trifluoroacetate salt] are 100 to 500 nM and more than 2000 nM.
For the compound `COC(=O)N1CCCC(NC(=O)c2cn3c(-c4cc(S(C)(=O)=O)ccc4C)cnc3c(N)n2)C1` (stereo not shown) [Example 461, Methyl 3-(8-amino-3-(2-methyl-5-(methylsulfonyl)phenyl)imidazo[1,2-a]pyrazine-6-carboxamido)piperidine-1-carboxylate trifluoroacetate salt], the IC50 in assay [1] fell in the range of 500 to 2000 nM; in assay [2], 100 to 500 nM.
Take `Cc1cc(C)c(S(=O)(=O)NCC(C)(C)O)cc1-c1cnc2c(N)nccn12` [Example 361, 5-(8-aminoimidazo[1,2-a]pyrazin-3-yl)-N-(2-hydroxy-2-methylpropyl)-2,4-dimethylbenzenesulfonamide]: the IC50 in assay [1] and in assay [2] was 100 to 500 nM in each case.
Turning to `Cc1ccc(S(=O)(=O)N[C@H]2C[C@H](C#N)C2)cc1-c1cnc2c(N)ncnn12` [Example 370, 3-(4-Aminoimidazo[2,1-f][1,2,4]triazin-7-yl)-N-((1r,3r)-3-cyanocyclobutyl)-4-(methyl-d3)benzenesulfonamide trifluoroacetate salt], the half-inhibitory concentration (IC50) in assay [1] is 100 to 500 nM; in assay [2], less than 100 nM.
In the case of `Cc1ccc(S(=O)(=O)N2CCC(F)(F)C(O)C2)cc1-c1cnc2c(N)ncnn12` (stereo not shown) [Example 196, 1-((3-(4-Aminoimidazo[2,1-f][1,2,4]triazin-7-yl)-4-methylphenyl)sulfonyl)-4,4-difluoropiperidin-3-ol], the IC50 in assay [1] is 500 to 2000 nM; in assay [2], less than 100 nM.
In the same order, the values of `Cc1ccc(S(=O)(=O)N2C3CCC2CC(O)C3)cc1-c1cnc2c(N)ncnn12` (stereo not shown) [Example 120, 8-{[3-(4-aminoimidazo[2,1-f][1,2,4]triazin-7-yl)-4-methylphenyl]sulfonyl}-8-azabicyclo[3.2.1]octan-3-ol] are 100 to 500 nM and less than 100 nM.
Take `Cc1ccc(S(=O)(=O)N2CCCC2c2c(C)noc2C)cc1-c1cnc2c(N)nc(C(F)(F)F)cn12` (stereo not shown) [Example 300, 3-(5-((2-(3,5-dimethylisoxazol-4-yl)pyrrolidin-1-yl)sulfonyl)-2-methylphenyl)-6-(trifluoromethyl)imidazo[1,2-a]pyrazin-8-amine]: the IC50 in assay [1] is 500 to 2000 nM; in assay [2], less than 100 nM.
In the same order, the values of `Cc1ccc(S(=O)(=O)NCC2CCOC2)cc1-c1cnc2c(N)ncnn12` (stereo not shown) [Example 67, 3-(4-Aminoimidazo[2,1-f][1,2,4]triazin-7-yl)-4-methyl-N-(tetrahydrofuran-3-ylmethyl)benzenesulfonamide] are more than 2000 nM and 100 to 500 nM.
For `Cc1ccc(S(C)(=O)=O)cc1-c1cnc2c(N)nc(-c3ccnn3C)cn12` [Example 479, 6-(1-Methyl-1H-pyrazol-5-yl)-3-(2-methyl-5-(methylsulfonyl)phenyl)imidazo[1,2-a]pyrazin-8-amine trifluoroacetate], the values for the IC50 in assay [1] and in assay [2] were 100 to 500 nM and less than 100 nM, respectively.
As to `Cc1ccc(S(=O)(=O)NC23CC(CO)(C2)C3)cc1-c1cnc2c(N)ncnn12` [Example 105, 3-(4-Aminoimidazo[1,2-f][1,2,4]triazin-7-yl)-N-(3-(hydroxymethyl)bicyclo[1,1,1]pentan-1-yl)-4-methylbenzenesulfonamide trifluoroacetate salt], the half-inhibitory concentration (IC50) was 500 to 2000 nM in assay [1] and less than 100 nM in assay [2].
